Results as given in the supplement of paper PMC10307832.

Key:
Assay in all cases: relative viability (nuclei count vs DMSO), 5 days (fraction); higher = more cells survive
Linsitinib + Trametinib = compound: C[C@]1(O)C[C@@H](c2nc(-c3ccc4ccc(-c5ccccc5)nc4c3)c3c(N)nccn32)C1 [Linsitinib] + CC(=O)Nc1cccc(-n2c(=O)n(C3CC3)c(=O)c3c(Nc4ccc(I)cc4F)n(C)c(=O)c(C)c32)c1 [Trametinib] (partner 0.02 µM)
In short: (§1)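 Relative viability divides the nuclei count in treated wells by that in vehicle wells. Lung cancer cell lines were seeded in 1536-well plates, dosed by pin tool the next day, and fixed and stained after 5 days in one step with final 0.05% Triton X-100, 1% formaldehyde and 1 ug/ml Hoechst. Dosing was a single drug or a fixed anchor-drug dose plus five library-drug doses (not always all listed) in √10 steps, and values are medians of duplicate plates imaged at 4×.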

Ispinesib + Foretinib = compound: Cc1ccc(C(=O)N(CCCN)[C@@H](c2nc3cc(Cl)ccc3c(=O)n2Cc2ccccc2)C(C)C)cc1 [Ispinesib] + COc1cc2c(Oc3ccc(NC(=O)C4(C(=O)Nc5ccc(F)cc5)CC4)cc3F)ccnc2cc1OCCCN1CCOCC1 [Foretinib] (partner 0.25 µM)
In short: as §1

Ispinesib + Bortezomib = compound: Cc1ccc(C(=O)N(CCCN)[C@@H](c2nc3cc(Cl)ccc3c(=O)n2Cc2ccccc2)C(C)C)cc1 [Ispinesib] + CC(C)C[C@H](NC(=O)[C@H](Cc1ccccc1)NC(=O)c1cnccn1)B(O)O [Bortezomib] (partner 0.002 µM)
In short: as §1

Linsitinib + OSI-027 = compound: C[C@]1(O)C[C@@H](c2nc(-c3ccc4ccc(-c5ccccc5)nc4c3)c3c(N)nccn32)C1 [Linsitinib] + COc1cccc2cc(-c3nc([C@H]4CC[C@H](C(=O)O)CC4)n4ncnc(N)c34)[nH]c12 [OSI-027] (partner 0.5 µM)
In short: as §1

Cell Line | relative viability (Linsitinib + Trametinib; first compound 0.01 µM) | relative viability (Linsitinib + Trametinib; first compound 0.03162 µM) | relative viability (Linsitinib + Trametinib; first compound 0.1 µM) | relative viability (Linsitinib + Trametinib; first compound 0.3162 µM) | relative viability (Linsitinib + Trametinib; first compound 1 µM) | relative viability (Ispinesib + Foretinib; first compound 0.001 µM) | relative viability (Ispinesib + Foretinib; first compound 0.003162 µM) | relative viability (Ispinesib + Foretinib; first compound 0.01 µM) | relative viability (Ispinesib + Foretinib; first compound 0.03162 µM) | relative viability (Ispinesib + Foretinib; first compound 0.1 µM) | relative viability (Ispinesib + Bortezomib; first compound 0.001 µM) | relative viability (Ispinesib + Bortezomib; first compound 0.003162 µM) | relative viability (Ispinesib + Bortezomib; first compound 0.01 µM) | relative viability (Ispinesib + Bortezomib; first compound 0.03162 µM) | relative viability (Ispinesib + Bortezomib; first compound 0.1 µM) | relative viability (Linsitinib + OSI-027; first compound 0.01 µM) | relative viability (Linsitinib + OSI-027; first compound 0.03162 µM) | relative viability (Linsitinib + OSI-027; first compound 0.1 µM) | relative viability (Linsitinib + OSI-027; first compound 0.3162 µM) | relative viability (Linsitinib + OSI-027; first compound 1 µM)
NCI-H1755 | 0.731 | 0.783 | 0.76 | 0.715 | 0.721 | 0.909 | 0.987 | 1.01 | 0.874 | 0.737 | 0.975 | 1.07 | 1.01 | 0.605 | 0.249 | 0.681 | 0.77 | 0.737 | 0.356 | 0.487
RERF-LC-KJ | 0.903 | 0.829 | 0.87 | 0.731 | 0.771 | 0.875 | 0.9 | 0.976 | 0.91 | 0.257 | 1.05 | 1.16 | 1.09 | 0.905 | 0.597 | 0.617 | 0.602 | 0.553 | 0.298 | 0.251
NCI-H647 | 0.478 | 0.509 | 0.436 | 0.338 | 0.351 | 1.26 | 1.32 | 1.41 | 0.703 | 0.191 | 0.98 | 0.849 | 0.655 | 0.16 | 0.167 | 0.679 | 0.658 | 0.582 |  | 0.428
BEN | 1.12 | 1.02 | 1.03 | 0.869 | 1.11 | 0.674 | 0.96 | 0.686 | 0.342 | 0.201 | 0.927 | 1.01 | 0.851 | 0.431 | 0.201 | 0.346 | 0.27 | 0.258 |  | 0.249
201T | 0.7 | 0.736 | 0.702 | 0.72 | 0.753 | 1.26 | 1.24 | 1.08 | 0.962 | 0.214 | 1.13 | 1.16 | 0.947 | 1.02 | 0.669 | 0.808 | 0.799 | 1.01 | 0.829 | 0.342
LC-2-ad | 0.906 | 0.718 | 0.942 | 0.864 | 0.827 | 0.892 | 0.863 | 1.09 | 0.63 | 0.361 | 1.01 | 1.07 | 1.07 | 0.917 | 0.119 | 0.803 | 0.827 | 0.684 | 0.414 | 0.422
LCLC-97TM1 | 0.215 | 0.174 | 0.156 | 0.171 | 0.196 | 0.928 | 0.948 | 0.933 | 0.856 | 0.56 | 0.518 | 1.16 | 0.689 | 0.143 | 0.254 | 0.52 | 0.515 | 0.335 | 0.248 | 0.234
NCI-H1915 | 0.292 | 0.332 | 0.292 | 0.308 | 0.268 | 1.15 | 1.16 | 1.33 | 1.03 | 0.425 | 1.04 | 1.14 | 1.13 | 0.797 | 0.172 | 0.646 | 0.678 | 0.623 | 0.515 | 0.392
NCI-H3122 | 0.259 | 0.213 | 0.253 |  | 0.232 | 0.977 | 1.01 | 1.08 | 1.07 | 0.207 | 1.07 | 0.945 | 1.09 | 1.06 | 0.202 | 0.994 | 0.868 | 1.03 |  | 0.487
NCI-H1650 | 0.592 | 0.524 | 0.537 | 0.464 | 0.349 | 1.27 | 1.44 | 1.12 | 0.305 | 0.273 | 0.187 | 0.211 | 0.188 | 0.173 | 0.205 | 0.576 | 0.598 | 0.527 | 0.242 | 0.222
NCI-H1993 | 0.46 | 0.494 | 0.398 | 0.476 | 0.504 | 0.694 | 0.786 | 0.802 | 0.756 | 0.633 | 1.23 | 1.14 | 1.1 | 1.03 | 0.585 | 0.502 | 0.534 | 0.525 | 0.407 | 0.679
NCI-H2405 | 0.66 | 0.6 | 0.607 | 0.708 | 0.401 | 1.04 | 1.06 | 1.02 | 1.07 | 0.978 | 1.02 | 1.05 | 1.11 | 0.924 | 0.81 | 0.624 | 0.638 | 0.637 | 0.53 | 0.347
NCI-H661 | 0.657 | 0.616 | 0.533 | 0.598 | 0.548 | 0.943 | 1.03 | 0.988 | 0.71 | 0.27 | 0.821 | 0.78 | 0.688 | 0.771 | 0.665 | 0.732 | 0.651 | 0.652 | 0.6 | 0.516
